In patent US11976137B2, “Compounds for use as apelin receptor antagonists” (Cambridge Enterprise Limited, priority 2018, dated 2024):
Values joined by “and” are separate entries in the source; they are usually repeats but may differ in a detail not shown here. Equal values may be shown once. Read-outs that look alike come from different tables or passages of the source. Non-standard residues stand in square brackets, D forms with d. Residues, ends and D or L forms follow the SMILES beside them. *: point of attachment. Phe(3,4,5-F3) = N[C@@H](Cc1cc(F)c(F)c(F)c1)C(=O)O; Myristoyl = CCCCCCCCCCCCCC(=O)*; pGlu = O=C1CC[C@@H](C(=O)O)N1; Nle = CCCC[C@H](N)C(=O)O; Abu = CC[C@H](N)C(=O)O; Aib = CC(C)(N)C(=O)O

Key:
Design in all cases: host or cells: CHO-K1
[1] = target: T1, human apelin receptor (Homo sapiens, UniProt P35414); assay: DRx β-arrestin assay (PathHunter eXpress AGTRL1 CHO-K1); type: cell-based; details: for Kb: DRx β-Arrestin pA2; for DRx β-Arrestin pA2: cho-k1 cells, 90 min
T1 sequence (P35414 1-380): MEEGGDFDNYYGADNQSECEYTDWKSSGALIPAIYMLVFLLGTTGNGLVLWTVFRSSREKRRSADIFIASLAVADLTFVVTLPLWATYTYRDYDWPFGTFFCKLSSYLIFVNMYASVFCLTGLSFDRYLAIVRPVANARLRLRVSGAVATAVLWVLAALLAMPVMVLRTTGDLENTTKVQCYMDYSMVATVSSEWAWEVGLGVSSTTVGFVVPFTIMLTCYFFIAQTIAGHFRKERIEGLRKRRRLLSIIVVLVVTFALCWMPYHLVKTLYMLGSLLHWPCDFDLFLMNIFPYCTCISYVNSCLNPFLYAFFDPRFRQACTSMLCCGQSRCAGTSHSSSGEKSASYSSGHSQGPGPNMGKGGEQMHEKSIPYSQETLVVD
Procedure: (§1) cAMP (cAMP Hunter™ eXpress AGTRL1 CHO-K1 GPCR Assay, DiscoverX Corporation, Ltd. Birmingham, UK) and β-arrestin (PathHunter® eXpress AGTRL1 CHO-K1 β-Arrestin GPCR Assay, DiscoverX Corporation, Ltd. Birmingham, UK) assays were performed according to the manufacturer's instructions. The cAMP assay measures the canonical signalling pathway through the G-protein. The β-arrestin assay measures the alternative signalling pathway and receptor internalisation.
For recruitment of β-arrestin, CHO-K1 cells artificially expressing the human apelin receptor were seeded in Cell Plating medium into 96-well plates and incubated for 48 hours at 37° C. in 5% CO2. Concentration response curves were constructed to test peptides (1 pmol/L-30 μmol/L) which were diluted in Cell Plating medium and added to the cells for 90 minutes at 37° C. If no response was obtained then test peptides were investigated as antagonists. […] Detection reagents were then added for a 2-hour incubation at room temperature. […] If no agonist response was obtained, test compounds were investigated for antagonist activity by repeating [Pyr]apelin-13 concentration response curves in the absence and presence of a single concentration (1-30 μmol/L of test peptide). Data were analysed as described for the cAMP assay using the Gaddum/Schild EC50 function in GraphPad Prism 6 to determine values of pA2.

[2] = target: T1, human apelin receptor; assay: DRx cAMP assay (cAMP Hunter eXpress AGTRL1 CHO-K1), forskolin-induced cAMP accumulation; type: cell-based; details: DRx cAMP pA2, antagonism of [Pyr1]apelin-13 inhibition of forskolin-stimulated cAMP
Procedure: Antagonist activity at the apelin receptor was measured in two assays.
as §1
Cells were then incubated with a mixture of Lysis Buffer, cAMP Buffer D and Detection Reagents for 1 hour at room temperature, followed by a 3 hour incubation with cAMP Reagent A at room temperature. Chemiluminescence was read using the LumiLITE™ Microplate Reader (DiscoverX). Concentration-response data for agonists, measured in relative light units (RLU), were analysed using a 4 parameter logistic equation in GraphPad Prism 6 (La Jolla, CA, USA) to determine values of potency expressed as the pD2 value (negative logo of the EC50 (where EC50 is the concentration producing half maximal response)), and maximum response (EMAX). Mean data from replicate experiments were normalised as percentage inhibition of forskolin-stimulated cAMP production.

[3] = target: T1, human apelin receptor; assay: Cerep radioligand binding assay on CHO-K1 cells expressing the human apelin receptor
Procedure: Binding assays were performed by Cerep (Celle L'Evescault, France) on Chinese Hamster Ovary (CHO-K1) cells expressing the human apelin receptor. […] The results were expressed as a percent of control specific binding ((measured specific binding/control specific binding)×100) and as a percent inhibition of control specific binding (100−((measured specific binding/control specific binding)×100)) obtained in the presence of the test compounds. […] The inhibition constants (Ki) were calculated using the Cheng Prusoff equation (Ki=IC50/(1+(L/KD)), where L=concentration of radioligand in the assay, and KD=equilibrium dissociation constant of the radioligand for the receptor).

[4] = [Glp65,Nle75,Tyr77][125I]apelin-13, read-out: Ki (binding affinity at the apelin receptor, Cerep)

Row | Kb [1] | DRx β-Arrestin pA2 [1] | Kb [2] | Ki [3, 4] | SMILES | Ki ([3]; Ki (binding affinity at the apelin receptor, Cerep), [Glp65,Nle75,Tyr77][125I]apelin-13)
1 | 29.5 nM | pA2 = 7.53 | 447 nM and 135 nM | 34 nM | CCCC[C@H](NC(=O)[C@H](CCCNC(=N)N)NC(=O)C(C)(C)NC(=O)[C@H](CCCNC(=N)N)NC(=O)[C@H](CS)NC(=O)[C@H](Cc1c[nH]cn1)NC(=O)[C@H](CCCCN)NC(=O)[C@H](CS)NC(=O)[C@H](CCCC)NC(=O)[C@H](CCCNC(=N)N)NC(=O)[C@@H]1CCCN1C(=O)[C@H](CCCNC(=N)N)NC(=O)[C@@H](N)CCC(N)=O)C(=O)N[C@@H](Cc1cc(F)c(F)c(F)c1)C(=O)O [MM262, QRPR-Nle-CKHCR-Aib-R-Nle-(3,4,5-trifluorophenylalanine)] (H-QRPR[Nle]CKHCR[Aib]R[Nle][Phe(3,4,5-F3)]-OH) | 
2 | 41.7 nM | pA2 = 7.38 | 832 nM and 724 nM | 55 nM | CCCC[C@H](NC(=O)[C@H](CCCNC(=N)N)NC(=O)C(C)(C)NC(=O)[C@H](CCCNC(=N)N)NC(=O)[C@H](CS)NC(=O)[C@H](Cc1c[nH]cn1)NC(=O)[C@H](CCCCN)NC(=O)[C@H](CS)NC(=O)[C@H](CCCC)NC(=O)[C@H](CCCNC(=N)N)NC(=O)[C@@H]1CCCN1C(=O)[C@H](CCCNC(=N)N)NC(=O)[C@@H]1CCC(=O)N1)C(=O)N[C@@H](Cc1cc(F)c(F)c(F)c1)C(=O)O [MM297, pyr-RPR-Nle-CKHCR-Aib-R-Nle-(3,4,5-trifluorophenylalanine)] ([pGlu]RPR[Nle]CKHCR[Aib]R[Nle][Phe(3,4,5-F3)]-OH) | 
3 | 17.4 nM | pA2 = 7.76 | 25.7 nM and 75.9 nM | 16 nM | CCCC[C@H](NC(=O)[C@H](CCCNC(=N)N)NC(=O)C(C)(C)NC(=O)[C@H](CCCNC(=N)N)NC(=O)[C@H](CS)NC(=O)[C@H](Cc1c[nH]cn1)NC(=O)[C@H](CCCCN)NC(=O)[C@H](CC)NC(=O)[C@H](CCCC)NC(=O)[C@H](CCCNC(=N)N)NC(=O)[C@@H]1CCCN1C(=O)[C@H](CCCNC(=N)N)NC(=O)[C@@H](N)CS)C(=O)N[C@@H](Cc1cc(F)c(F)c(F)c1)C(=O)O [MM298, CRPR-Nle-Abu-KHCR-Aib-R-Nle-(3,4,5-trifluorophenylalanine)] (H-CRPR[Nle][Abu]KHCR[Aib]R[Nle][Phe(3,4,5-F3)]-OH) | 
4 | 7.94 nM and 2.95 nM |  | 47.9 nM and 112 nM | 6.1 nM | CCCC[C@H](NC(=O)[C@H](CCCNC(=N)N)NC(=O)C(C)(C)NC(=O)[C@H](CCCNC(=N)N)NC(=O)[C@H](CC)NC(=O)[C@H](Cc1c[nH]cn1)NC(=O)[C@H](CCCCN)NC(=O)[C@H](CS)NC(=O)[C@H](CCCC)NC(=O)[C@H](CCCNC(=N)N)NC(=O)[C@@H]1CCCN1C(=O)[C@H](CCCNC(=N)N)NC(=O)[C@@H](N)CS)C(=O)N[C@@H](Cc1cc(F)c(F)c(F)c1)C(=O)O [MM299, CRPR-Nle-CKH-Abu-R-Aib-R-Nle-(3,4,5-trifluorophenylalanine)] (H-CRPR[Nle]CKH[Abu]R[Aib]R[Nle][Phe(3,4,5-F3)]-OH) | 
5 |  |  | 251 nM and 145 nM | 190 nM and 160 nM | CCCC[C@H](NC(=O)[C@H](CCCNC(=N)N)NC(=O)C(C)(C)NC(=O)[C@H](CCCNC(=N)N)NC(=O)[C@H](CC)NC(=O)[C@H](Cc1c[nH]cn1)NC(=O)[C@H](CCCCN)NC(=O)[C@H](CS)NC(=O)[C@H](CCCC)NC(=O)[C@H](CCCNC(=N)N)NC(=O)[C@@H]1CCCN1C(=O)[C@H](CCCNC(=N)N)NC(=O)[C@H](C)N)C(=O)N[C@@H](Cc1cc(F)c(F)c(F)c1)C(=O)O [MM312, ARPR-Nle-CKH-Abu-R-Aib-R-Nle-(3,4,5-trifluorophenylalanine)] (H-ARPR[Nle]CKH[Abu]R[Aib]R[Nle][Phe(3,4,5-F3)]-OH) | 
6 |  |  | 219 nM and 120 nM | 53 nM and 47 nM | CCCC[C@H](NC(=O)[C@H](CCCNC(=N)N)NC(=O)C(C)(C)NC(=O)[C@H](CCCNC(=N)N)NC(=O)[C@H](CC)NC(=O)[C@H](Cc1c[nH]cn1)NC(=O)[C@H](CCCCN)NC(=O)[C@H](CS)NC(=O)[C@H](CCCC)NC(=O)[C@H](CCCNC(=N)N)NC(=O)[C@@H]1CCCN1C(=O)[C@H](CCCNC(=N)N)NC(=O)[C@H](C)NC(C)=O)C(=O)N[C@@H](Cc1cc(F)c(F)c(F)c1)C(=O)O [MM313, Ac-ARPR-Nle-CKH-Abu-R-Aib-R-Nle-(3,4,5-trifluorophenylalanine)] (Ac-ARPR[Nle]CKH[Abu]R[Aib]R[Nle][Phe(3,4,5-F3)]-OH) | 
7 |  |  | 372 nM and 195 nM | 10 nM and 8.9 nM | CCCC[C@H](NC(=O)[C@H](CCCNC(=N)N)NC(=O)C(C)(C)NC(=O)[C@H](CCCNC(=N)N)NC(=O)[C@H](CC)NC(=O)[C@H](Cc1c[nH]cn1)NC(=O)[C@H](CCCCN)NC(=O)[C@H](CC)NC(=O)[C@H](CCCC)NC(=O)[C@H](CCCNC(=N)N)NC(=O)[C@@H]1CCCN1C(=O)[C@H](CCCNC(=N)N)NC(=O)[C@H](C)N)C(=O)N[C@@H](Cc1cc(F)c(F)c(F)c1)C(=O)O [MM314, ARPR-Nle-Abu-KH-Abu-R-Aib-R-Nle-(3,4,5-trifluorophenylalanine)] (H-ARPR[Nle][Abu]KH[Abu]R[Aib]R[Nle][Phe(3,4,5-F3)]-OH) | 
8 |  |  | 7.76 nM and 3.02 nM | 2.7 nM and 3 nM | CCCCCCCCCCCCCC(=O)N[C@@H](C)C(=O)N[C@@H](CCCNC(=N)N)C(=O)N1CCC[C@H]1C(=O)N[C@@H](CCCNC(=N)N)C(=O)N[C@@H](CCCC)C(=O)N[C@@H](CC)C(=O)N[C@@H](CCCCN)C(=O)N[C@@H](Cc1c[nH]cn1)C(=O)N[C@@H](CC)C(=O)N[C@@H](CCCNC(=N)N)C(=O)NC(C)(C)C(=O)N[C@@H](CCCNC(=N)N)C(=O)N[C@@H](CCCC)C(=O)N[C@@H](Cc1cc(F)c(F)c(F)c1)C(=O)O [MM315, Myristoyl-ARPR-Nle-Abu-KH-Abu-R-Aib-R-Nle-(3,4,5-trifluorophenylalanine)] (Myristoyl-ARPR[Nle][Abu]KH[Abu]R[Aib]R[Nle][Phe(3,4,5-F3)]-OH) | 
9 |  |  | 13.2 nM and 38.9 nM | 2.8 nM and 3 nM | CCCCCCCCCCCCCC(=O)N[C@@H](C)C(=O)N[C@@H](CCCNC(=N)N)C(=O)N1CCC[C@H]1C(=O)N[C@@H](CCCNC(=N)N)C(=O)N[C@@H](CCCC)C(=O)N[C@@H](CC)C(=O)N[C@@H](Cc1c[nH]cn1)C(=O)N[C@@H](CCCCN)C(=O)N[C@@H](CC)C(=O)N[C@@H](CCCNC(=N)N)C(=O)NC(C)(C)C(=O)N[C@@H](CCCNC(=N)N)C(=O)N[C@@H](CCCC)C(=O)N[C@@H](Cc1cc(F)c(F)c(F)c1)C(=O)O [MM316, Myristoyl-ARPR-Nle-Abu-HK-Abu-R-Aib-R-Nle-(3,4,5-trifluorophenylalanine)] (Myristoyl-ARPR[Nle][Abu]HK[Abu]R[Aib]R[Nle][Phe(3,4,5-F3)]-OH) | 

Row | SMILES | Kb [1] | DRx β-Arrestin pA2 [1] | Kb [2] | Ki [3, 4] | Ki ([3]; Ki (binding affinity at the apelin receptor, Cerep), [Glp65,Nle75,Tyr77][125I]apelin-13)
10 | CC(C)C[C@H](NC(=O)[C@H](CCCNC(=N)N)NC(=O)[C@@H]1CCCN1C(=O)[C@H](CCCNC(=N)N)NC(=O)[C@H](CS)NC(=O)[C@H](CCCCN)NC(=O)[C@H](Cc1c[nH]cn1)NC(=O)[C@H](CS)NC(=O)[C@H](CC(C)C)NC(=O)[C@H](CCCNC(=N)N)NC(=O)[C@@H]1CCCN1C(=O)[C@H](CCCNC(=N)N)NC(=O)[C@@H](N)CS)C(=O)N[C@@H](CS)C(=O)O [MM107] (H-CRPRLCHKCRPRLC-OH; N-terminus and C-terminus assumed) | 57.5 nM | pA2 = 7.24 | 4680 nM and 575 nM |  | 
11 | CC(C)C[C@H](NC(=O)[C@H](CCCNC(=N)N)NC(=O)[C@@H]1CCCN1C(=O)[C@H](CCCNC(=N)N)NC(=O)[C@H](CS)NC(=O)[C@H](Cc1c[nH]cn1)NC(=O)[C@H](CCCCN)NC(=O)[C@H](CS)NC(=O)[C@H](CC(C)C)NC(=O)[C@H](CCCNC(=N)N)NC(=O)[C@@H]1CCCN1C(=O)[C@H](CCCNC(=N)N)NC(=O)[C@@H](N)CS)C(=O)N[C@@H](CS)C(=O)O [MM108] (H-CRPRLCKHCRPRLC-OH) | 38.9 nM | pA2 = 7.41 | 107 nM and 191 nM |  | 140 nM
